Laboratory results taken from patent US12016943B2, “Antiperspirant or deodorant composition” (Firmenich SA, priority 2016, dated 2024).

Legend:
Format in all cases: physicochemical
[1] = Assessment of coloration of deodorant or antiperspirant formulations containing perfuming ingredients with or without Haloscent D; design: key: CO: color; COYE: yelow color; VSCOYE: very slight yellow color; SCOYE: slight yellow color; VCOYE: very yellow color; NC: no color; DECO: decoloration; CL: cloud; VCL: very cloud; WH: white; VCOBR: very brown color; COPI: ping color; details: perfuming ingredient 0.5 wt %, after 15 days
Procedure: (§1) Preparation of an Antiperspirant Spray Formulation: Using a high speed stirrer, Silica (Table 1) and Quaternium-18-Hectorite (Table 1) were added to the Isopropyl miristate (Table 1) and Cyclomethicone mixture (Table 1). Once completely swollen, Aluminium Chlorohydrate (Table 1) was added portion wise under stirring until the mixture was homogeneous and without lumps. The aerosol cans were filled with 25% Suspension of the suspension and 75% of Propane/Butane (2.5 bar).
(§2) Preparation of Deodorant Spray Formulation: All the ingredients according to the sequence of the Table 2 were mixed and dissolved. Then the aerosol cans were filled, crimp and add the propellant (Aerosol filling: 40% active solution 60% Propane/Butane 2.5 bar).
(§3) Part A was prepared by sprinkling little by little the Hydroxyethylcellulose (Table 3) in the water (Table 3) whilst rapidly stirring with the turbine. Stirring was continued until the Hydroxyethylcellulose had entirely swollen and giving a limpid gel. Then, Part B (Table 3) was poured little by little in Part A whilst continuing stirring until the whole was homogeneous. Part C was added (Table 3).
(§4) Preparation of a Deodorant Stick Formulation: All the components of Part A were weighted (Table 4) and heated up to 70-75° C. Ceteareth-25 (Table 4) was added once the other Part A ingredients were mixed and heated. Once the Ceteareth-25 was dissolved, the Stearic Acid was added. Part B was prepared by dissolving the Triclosan (Table 4) in 1,2 Propylene Glycol (Table 4). Water which has evaporated was added. Slowly under mixing, Part B was poured into part A. To stock, a plastic bag into the bucket was put in to be sealed after cooling. Moulds was filled at about 70° C.
(§5) Preparation of an Antiperspirant Stick Formulation: All the components of Part A were weighted (Table 5), heated up to 70-75° C. and mixed well. Ingredient of Part B was dispersed in Part A. The mixture was mixed and putted into a tick at 65° C.
(§6) Assessment of Coloration in the Perfuming Ingredients: To set of deodorant or antiperspirant formulations of point a) to e) has been prepared. A perfuming ingredient (0.5 wt %—Table 6, 7 and 8) was added to the first set a and a perfuming ingredient (0.5 wt %—Table 6, 7 and 8) and Haloscent® D (0.5 wt %) were added to the second set. All these formulations were placed at 3° C. and 45° C. for several weeks. All formulations were evaluated in comparison with unperfumed deodorant or antiperspirant formulation. The coloration of each formulation was assessed by a minimum of 2 panelists.

[2] = as above; design: key to Coloration of antiperspirant stick: CO: color; COYE: yelow color; VSCOYE: very slight yellow color; SCOYE: slight yellow color; VCOYE: very yellow color; NC: no color; DECO: decoloration; CL: cloud; VCL: very cloud; WH: white; VCOBR: very brown color; COPI: ping color; details: perfuming ingredient 0.5 wt %; for Coloration of antiperspirant stick: after 7 days
Procedure: as §1, §2, §3, §4, §5, §6

[3] = as above; design: key: CO: color; COYE: yellow color; SCOYE: slight yellow color; VCOYE: very yellow color; NC: no color; DECO: discoloration; CL: cloud; VCL: very cloud; WH: white; VCOBR: very brown color; COPI: ping color; details: perfuming ingredient 0.5 wt %, after 15 days; for Coloration of deodorant spray: DEO SPRAY + Haloscent D 0.5 wt %
Procedure: as §1, §2, §3, §4, §5, §6

[4] = DEO ROLL-ON + Haloscent D 0.5 wt %, 3° C.
[5] = DEO ROLL-ON + Haloscent D 0.5 wt %, 45° C.
[6] = DEO STICK + Haloscent D 0.5 wt %, 3° C.
[7] = DEO STICK + Haloscent D 0.5 wt %, 45° C.
[8] = AP Stick + Haloscent D 0.5 wt %, 3° C.
[9] = AP Stick + Haloscent D 0.5 wt %, 45° C.
[10] = AP SPRAY + Haloscent D 0.5 wt %, 3° C.
[11] = AP SPRAY + Haloscent D 0.5 wt %, 45° C.
[12] = DEO SPRAY + Haloscent D 0.5 wt %, 3° C.
[13] = DEO SPRAY + Haloscent D 0.5 wt %, 45° C.

| Compound | Coloration of deodorant roll-on [1, 4] | Coloration of deodorant roll-on [1, 5] | Coloration of deodorant roll-on ([1]; DEO ROLL-ON, 3° C.) | Coloration of deodorant roll-on ([1]; DEO ROLL-ON, 45° C.) | Coloration of deodorant stick [1, 6] | Coloration of deodorant stick [1, 7] | Coloration of deodorant stick ([1]; DEO STICK, 3° C.) | Coloration of deodorant stick ([1]; DEO STICK, 45° C.) | Coloration of antiperspirant stick [2, 8] | Coloration of antiperspirant stick [2, 9] | Coloration of antiperspirant stick ([2]; AP Stick, 3° C.) | Coloration of antiperspirant stick ([2]; AP Stick, 45° C.) | Coloration of antiperspirant spray ([1]; AP SPRAY, 3° C.) | Coloration of antiperspirant spray ([1]; AP SPRAY, 45° C.) | Coloration of deodorant spray [1, 12] | Coloration of deodorant spray [1, 13] | Coloration of deodorant spray ([1]; DEO SPRAY, 3° C.) | Coloration of deodorant spray ([1]; DEO SPRAY, 45° C.) | Coloration of deodorant roll-on [3, 5] | further results |
| --- | --- | --- | --- | --- | --- | --- | --- | --- | --- | --- | --- | --- | --- | --- | --- | --- | --- | --- | --- | --- |
| 1-(3,3-dimethyl-1-cyclohexen-1-yl)-4-penten-1-one (A) + 1-(5,5-dimethyl-1-cyclohexen-1-yl)-4-penten-1-one (B) [DYNASCONE] | WH | SCOYE | VCL | NC | SCOYE | VCOYE | NC | VCOYE |  |  |  |  |  |  |  |  |  |  |  |  |
| CC(C)=CCCC(C)CCO (racemic) [(+−)-3,7-DIMETHYL-6-OCTEN-1-OL] | NC | NC | NC | NC | SCOYE | NC | NC | NC | VSCOYE | VSCOYE | DECO | DECO | NC | NC | NC | NC | NC | NC |  | Coloration of antiperspirant spray [1, 10]: SCOYE; Coloration of antiperspirant spray [1, 11]: SCOYE |
| c1ccc2[nH]ccc2c1 [2,3-BENZOPYRROLE] | NC |  | NC | NC | NC | NC | NC | SCOYE | COPI | VSCOYE | DECO | VSCOYE |  |  |  |  |  |  |  | Coloration of deodorant roll-on ([2]; DEO ROLL-ON + Haloscent D 0.5 wt %, 45° C., after 15 days): VSCOYE |
| C=C(CC)CCCC(C)(C)O [2-METHYL-6-METHYLIDENEOCTAN-2-OL] | NC | NC | NC | NC | SCOYE | NC | NC | NC |  |  |  |  |  |  |  |  |  |  |  |  |
| CCCCCOC(=O)c1ccccc1O [AMYLE SALICYLATE, PENTYL 2-HYDROXYBENZOATE] | WH | VCL | VCL | NC | NC | NC | NC | NC | VSCOPI | VSCOPI | VSCOPI | NC |  |  |  |  |  |  |  |  |

Now from value to compound, other results behind:

| Coloration of deodorant roll-on [1, 4] | Coloration of deodorant roll-on [1, 5] | Coloration of deodorant roll-on ([1]; DEO ROLL-ON, 3° C.) | Coloration of deodorant roll-on ([1]; DEO ROLL-ON, 45° C.) | Coloration of deodorant stick [1, 6] | Coloration of deodorant stick [1, 7] | Coloration of deodorant stick ([1]; DEO STICK, 3° C.) | Coloration of deodorant stick ([1]; DEO STICK, 45° C.) | Coloration of antiperspirant stick [2, 8] | Coloration of antiperspirant stick [2, 9] | Coloration of antiperspirant stick ([2]; AP Stick, 3° C.) | Coloration of antiperspirant stick ([2]; AP Stick, 45° C.) | Coloration of antiperspirant spray ([1]; AP SPRAY, 3° C.) | Coloration of antiperspirant spray ([1]; AP SPRAY, 45° C.) | Coloration of deodorant spray [1, 12] | Coloration of deodorant spray [1, 13] | Coloration of deodorant spray ([1]; DEO SPRAY, 3° C.) | Coloration of deodorant spray ([1]; DEO SPRAY, 45° C.) | Coloration of deodorant roll-on [3, 5] | Compound | further results |
| --- | --- | --- | --- | --- | --- | --- | --- | --- | --- | --- | --- | --- | --- | --- | --- | --- | --- | --- | --- | --- |
| NC | CO | NC |  | COPI | VCOBR | COPI | VCOBR |  |  |  |  |  | SCOYE | CO | CO | CO | CO |  | CC(C)c1ccc2c(c1)OCC(=O)CO2 [CALONE, 7-ISOPROPYL-2H,4H-1,5-BENZODIOXEPIN-3-ONE] | Coloration of antiperspirant spray [3, 10]: COYE; Coloration of antiperspirant spray [3, 11]: COYE; Coloration of antiperspirant spray ([3]; AP SPRAY, 3° C.): COYE; Coloration of deodorant roll-on ([3]; DEO ROLL-ON, 45° C.): DECO |
| WH | CL | VCL | VCL | NC | NC | NC | NC |  |  |  |  | NC | NC |  |  | NC | NC |  | O=C1CC/C=C\CCCCCCCCCC1 [EXALTENONE, (Z)-4-CYCLOPENTADECEN-1-ONE] | Coloration of deodorant spray ([3]; 3° C.): COYE; Coloration of deodorant spray ([3]; 45° C.): COYE; Coloration of antiperspirant spray [1, 10]: NC; Coloration of antiperspirant spray [1, 11]: NC |
| VCL |  | VCL | NC | NC | NC | NC | NC |  |  |  |  |  |  |  |  |  |  | COYE | CCC(=O)OCC(=O)O[C@@H](C)[C@@H]1CCCC(C)(C)C1 [ROMANDOLIDE, 2-{(1S)-1-[(1R)-3,3-dimethylcyclohexyl]ethoxy}-2-oxoethyl propionate] |  |
| WH |  | VCL | NC | NC | VCOYE | NC | VCOYE |  |  |  |  |  |  |  |  |  |  | COYE | (+−)-(3E)-3-methyl-4-(2,6,6-trimethyl-2-cyclohexen-1-yl)-3-buten-2-one (A) + (+−)-(1E)-1-(2,6,6-trimethyl-2-cyclohexen-1-yl)-1-penten-3-one (B) [ISORALDEINE 70P] |  |
| WH |  | VCL | SCOYE | NC | NC | NC | NC |  |  |  |  | NC | NC | NC | NC | NC | NC | COYE | (+−)-(4E)-3-METHYL-4-CYCLOPENTADECEN-1-ONE (A) + (+−)-(5E)-3-METHYL-5-CYCLOPENTADECEN-1-ONE (B) + (+−)-(5Z)-3-METHYL-5-CYCLOPENTADECEN-1-ONE (C) [MUSCENONE DELTA] | Coloration of antiperspirant spray [3, 10]: COYE; Coloration of antiperspirant spray [3, 11]: COYE |
